Assay results published in article PMC6465099 (Clinical Pharmacology and Therapeutics, 2018).

Assays:
[1] = Clinical crossover study: iohexol clearance; assay type: in vivo, human; conditions: for clearance: human, plasma, intravenous
[2] = molecular target: T1, OCT2 (Homo sapiens, UniProt O15244); assay: Inhibition of OCT2-mediated; assay type: cell-based; conditions: sum of unbound Cmax/IC50 of abemaciclib, M2 and M20
T1 sequence (O15244 1-555): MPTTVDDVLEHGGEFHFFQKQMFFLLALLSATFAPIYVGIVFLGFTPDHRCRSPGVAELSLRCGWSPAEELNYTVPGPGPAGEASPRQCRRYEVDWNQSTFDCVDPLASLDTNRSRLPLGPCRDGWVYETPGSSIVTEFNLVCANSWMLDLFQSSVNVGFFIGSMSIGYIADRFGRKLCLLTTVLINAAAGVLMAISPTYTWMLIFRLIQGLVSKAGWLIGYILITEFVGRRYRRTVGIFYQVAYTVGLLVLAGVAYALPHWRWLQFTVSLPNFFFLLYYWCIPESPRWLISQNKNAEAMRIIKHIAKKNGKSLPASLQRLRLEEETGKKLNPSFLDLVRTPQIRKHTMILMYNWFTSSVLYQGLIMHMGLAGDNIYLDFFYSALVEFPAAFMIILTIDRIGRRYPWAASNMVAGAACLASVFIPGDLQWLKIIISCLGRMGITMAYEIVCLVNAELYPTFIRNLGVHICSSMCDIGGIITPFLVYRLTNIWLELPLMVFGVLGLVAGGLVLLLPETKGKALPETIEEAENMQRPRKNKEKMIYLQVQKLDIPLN

[3] = molecular target: T2, MATE1 (Homo sapiens, UniProt Q96FL8); assay: Inhibition of MATE1-mediated; assay type: cell-based; conditions: sum of unbound Cmax/IC50 of abemaciclib, M2 and M20
T2 sequence (Q96FL8 1-570): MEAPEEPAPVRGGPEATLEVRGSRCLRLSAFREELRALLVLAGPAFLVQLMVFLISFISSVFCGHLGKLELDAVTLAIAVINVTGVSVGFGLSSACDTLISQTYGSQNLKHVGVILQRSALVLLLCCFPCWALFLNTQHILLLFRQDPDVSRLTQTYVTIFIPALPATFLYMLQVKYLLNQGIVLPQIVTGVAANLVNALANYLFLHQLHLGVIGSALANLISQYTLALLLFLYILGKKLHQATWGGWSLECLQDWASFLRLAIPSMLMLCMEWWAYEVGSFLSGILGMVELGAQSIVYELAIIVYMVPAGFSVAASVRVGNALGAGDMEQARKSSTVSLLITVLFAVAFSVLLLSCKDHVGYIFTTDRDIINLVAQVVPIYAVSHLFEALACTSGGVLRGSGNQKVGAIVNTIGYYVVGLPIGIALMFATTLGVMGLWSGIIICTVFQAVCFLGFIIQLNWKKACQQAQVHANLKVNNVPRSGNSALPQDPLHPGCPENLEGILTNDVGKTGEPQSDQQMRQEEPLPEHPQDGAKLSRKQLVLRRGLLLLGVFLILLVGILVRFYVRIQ

[4] = molecular target: MATE2-K (Homo sapiens, UniProt Q86VL8); assay: Inhibition of MATE2-K-mediated; assay type: cell-based; conditions: sum of unbound Cmax/IC50 of abemaciclib, M2 and M20
Sequence of MATE2-K (Q86VL8 1-566 isoform Q86VL8-3): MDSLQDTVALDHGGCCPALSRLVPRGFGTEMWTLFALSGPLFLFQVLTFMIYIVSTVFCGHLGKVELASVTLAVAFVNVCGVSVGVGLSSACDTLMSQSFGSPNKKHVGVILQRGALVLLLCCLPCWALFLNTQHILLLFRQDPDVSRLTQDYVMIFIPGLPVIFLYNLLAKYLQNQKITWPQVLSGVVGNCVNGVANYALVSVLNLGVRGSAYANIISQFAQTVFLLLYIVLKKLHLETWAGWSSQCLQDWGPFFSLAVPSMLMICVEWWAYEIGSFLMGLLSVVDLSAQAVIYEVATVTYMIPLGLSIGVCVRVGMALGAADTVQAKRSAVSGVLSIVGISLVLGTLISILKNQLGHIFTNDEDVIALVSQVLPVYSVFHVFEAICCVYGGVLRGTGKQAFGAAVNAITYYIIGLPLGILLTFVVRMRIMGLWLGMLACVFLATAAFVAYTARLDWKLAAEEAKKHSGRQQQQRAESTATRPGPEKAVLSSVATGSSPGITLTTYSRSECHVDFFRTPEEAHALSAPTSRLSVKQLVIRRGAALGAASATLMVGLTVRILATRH

[5] = Clinical study: serum creatinine and estimated GFR after abemaciclib; assay type: in vivo, human
[6] = Clinical study: renal injury biomarkers; assay type: in vivo, human
[7] = patients with cancer and healthy subjects; cited from earlier work

Row | SMILES | clearance [1] [mL/min] | clearance ([1]; 3235 mg) [mL/min] | Combined DDI index, OCT2 [2] | Combined DDI index, MATE1 [3] | Combined DDI index, MATE2-K [4] | Effect of coadministration on iohexol PK ([1]; 400 mg abemaciclib with iohexol) | eGFR (CKD-EPI equation using SCr) ([5]; abemaciclib in combination with iohexol) [mL/minute/1.73 m^2] | eGFR (CKD-EPI equation using SCr) ([5]; abemaciclib in combination with metformin) [mL/minute/1.73 m^2] | eGFR calculated using serum cystatin-C ([5]; abemaciclib vs. placebo periods) | Mean increase in SCr concentration ([5]; between 10 and 12 hours postdose, 400 mg abemaciclib, healthy subjects) [µmol/L] | Reversible increase in SCr expected in patients ([5]; patients dosed with abemaciclib, suggested by the findings) | Time of peak SCr elevation ([5]; post abemaciclib dose) [h] | Trends in serum cystatin-C or NGAL indicative of renal injury ([6]; abemaciclib with either metformin or iohexol) | Creatinine-normalized urinary concentrations of NGAL and KIM-1 ([6]; following abemaciclib dosing) | Reversible increase in serum creatinine over baseline [7]
1 | CC(=O)N(CC(O)CO)c1c(I)c(C(=O)NCC(O)CO)c(I)c(C(=O)NCC(O)CO)c1I (stereo not drawn) [iohexol] | 85.6 | 89 | – | – | – | – | – | – | – | – | – | – | – | – | –
2 | CCN1CCN(Cc2ccc(Nc3ncc(F)c(-c4cc(F)c5nc(C)n(C(C)C)c5c4)n3)nc2)CC1 [Abemaciclib] | – | – | 0.03 | 0.13 | 0.06 | did not affect | 53.6 | 57.2 | did not change | 35.7 to 44.6 | 10–40% | 12 | no trends | No notable change | 15–40%
